Experimental data reported in ChEMBL document CHEMBL1201862, “PubChem BioAssay data set” (2004).
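Interpolation was linear, between the two tested concentrations surrounding the appropriate level; five concentrations were tested over 48 hours in 96-well plates. The concentration for 50% growth inhibition is given as GI50.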 Calls of active or inactive are those of the source. Rule as the data show it: active = GI50 up to about 1.1 µM and inactive = higher. Square brackets hold non-standard residues; d marks the D form. Peptide text beside a SMILES is read from it. * marks the point of attachment. ξ: configuration not given here. ξD = NC(CC(=O)O)C(=O)O; Ac3c = NC1(C(=O)O)CC1; Boc = CC(C)(C)OC(=O)*; OtBu = CC(C)(C)O*

Legend:
Assay in all cases: growth of human tumour cells (NCI), 48 h
[1] = test system: SK-OV-3
[2] = test system: SK-MEL-2
[3] = test system: HOP-62
[4] = test system: MDA-MB-231
[5] = test system: NCI-H460
[6] = test system: NCI/ADR-RES
[7] = test system: LOX IMVI
[8] = test system: SF-539
[9] = test system: Hs-578T
[10] = test system: T47D
[11] = test system: EKVX
[12] = test system: A498
[13] = test system: K562
[14] = test system: HL-60
[15] = test system: SF-295
[16] = test system: CAKI-1
[17] = test system: CCRF-CEM
[18] = test system: SR
[19] = test system: SNB-75
[20] = test system: Malme-3M

| Structure (SMILES) | GI50 [1] | GI50 [2] | GI50 [3] | GI50 [4] | GI50 [5] | GI50 [6] | GI50 [7] | GI50 [8] | GI50 [9] | GI50 [10] | GI50 [11] | GI50 [12] | GI50 [13] | GI50 [14] | GI50 [15] | GI50 [16] | GI50 [17] | GI50 [18] | GI50 [19] | GI50 [20] |
| --- | --- | --- | --- | --- | --- | --- | --- | --- | --- | --- | --- | --- | --- | --- | --- | --- | --- | --- | --- | --- |
| NC(=O)NNCc1ccccc1 | > 100 µM (inactive) | > 100 µM (inactive) | > 100 µM (inactive) | > 100 µM (inactive) | > 100 µM (inactive) | > 100 µM (inactive) | > 100 µM (inactive) | > 100 µM (inactive) | > 100 µM (inactive) | > 100 µM (inactive) | > 100 µM (inactive) | > 100 µM (inactive) | > 100 µM (inactive) | > 100 µM (inactive) | > 100 µM (inactive) | > 100 µM (inactive) | > 100 µM (inactive) | – | – | – |
| OC(c1ccc(C(F)(F)F)cc1)C(F)(F)c1nc2ccccc2o1 (configuration not stated) | > 100 µM (inactive) | > 100 µM (inactive) | > 100 µM (inactive) | > 100 µM (inactive) | > 100 µM (inactive) | > 100 µM (inactive) | > 100 µM (inactive) | > 100 µM (inactive) | > 100 µM (inactive) | > 100 µM (inactive) | > 100 µM (inactive) | – | 56.8 µM (inactive) | > 100 µM (inactive) | > 100 µM (inactive) | > 100 µM (inactive) | > 100 µM (inactive) | > 100 µM (inactive) | > 100 µM (inactive) | – |
| NC1CCCCC1.O=P(O)(O)C(O)/C=C/c1ccccc1 (configuration not stated) | > 100 µM (inactive) | > 100 µM (inactive) | > 100 µM (inactive) | > 100 µM (inactive) | > 100 µM (inactive) | > 100 µM (inactive) | > 100 µM (inactive) | – | > 100 µM (inactive) | > 100 µM (inactive) | > 100 µM (inactive) | > 100 µM (inactive) | > 100 µM (inactive) | > 100 µM (inactive) | > 100 µM (inactive) | > 100 µM (inactive) | – | – | > 100 µM (inactive) | > 100 µM (inactive) |
| CCCCCCCCCC(O)CC(=O)c1c(O)cccc1O (configuration not stated) | 20 µM (inactive) | 18.4 µM (inactive) | 16 µM (inactive) | 21.4 µM (inactive) | – | 18.4 µM (inactive) | 20.4 µM (inactive) | 20.3 µM (inactive) | 18.6 µM (inactive) | 25.2 µM (inactive) | 21.9 µM (inactive) | 30.5 µM (inactive) | 22.1 µM (inactive) | 22.2 µM (inactive) | 19.4 µM (inactive) | 21.7 µM (inactive) | 46.3 µM (inactive) | – | 18.7 µM (inactive) | 16 µM (inactive) |
| COC1=C(C)C(=O)C2=C(C1=O)C1C3CC4=C(C(=O)C(OC)=C(C)C4=O)C(CNC(=O)C(C)=O)N3C(C#N)C(C2)N1C (configuration not stated) | 0.0741 µM (active) | 0.00226 µM (active) | 0.0215 µM (active) | 0.00283 µM (active) | 0.0101 µM (active) | 0.296 µM (active) | 0.00129 µM (active) | 0.00891 µM (active) | < 0.001 µM (active) | < 0.001 µM (active) | 0.104 µM (active) | – | 0.00153 µM (active) | 0.00328 µM (active) | 0.0202 µM (active) | 0.00516 µM (active) | 0.00839 µM (active) | – | 0.00519 µM (active) | 0.00678 µM (active) |
| C[N+](C)([O-])Cc1cc(-c2ccccc2)ccc1O | – | > 100 µM (inactive) | > 100 µM (inactive) | > 100 µM (inactive) | 72.8 µM (inactive) | > 100 µM (inactive) | > 100 µM (inactive) | – | 79.3 µM (inactive) | > 100 µM (inactive) | > 100 µM (inactive) | > 100 µM (inactive) | > 100 µM (inactive) | – | > 100 µM (inactive) | > 100 µM (inactive) | – | 49.1 µM (inactive) | > 100 µM (inactive) | > 100 µM (inactive) |
| Cc1ccc(S(=O)(=O)n2cncc2CO)cc1 | > 100 µM (inactive) | > 100 µM (inactive) | > 100 µM (inactive) | > 100 µM (inactive) | > 100 µM (inactive) | > 100 µM (inactive) | > 100 µM (inactive) | > 100 µM (inactive) | > 100 µM (inactive) | > 100 µM (inactive) | > 100 µM (inactive) | – | > 100 µM (inactive) | > 100 µM (inactive) | > 100 µM (inactive) | > 100 µM (inactive) | > 100 µM (inactive) | > 100 µM (inactive) | > 100 µM (inactive) | > 100 µM (inactive) |
| COC(=O)C1(NC(=O)C(CC(=O)OC(C)(C)C)NC(=O)OC(C)(C)C)CC1 (configuration not stated) (Boc-[ξD](OtBu)-[Ac3c]-OMe) | 7.87 µM (inactive) | > 100 µM (inactive) | > 100 µM (inactive) | > 100 µM (inactive) | > 100 µM (inactive) | > 100 µM (inactive) | > 100 µM (inactive) | > 100 µM (inactive) | > 100 µM (inactive) | > 100 µM (inactive) | > 100 µM (inactive) | > 100 µM (inactive) | > 100 µM (inactive) | – | > 100 µM (inactive) | > 100 µM (inactive) | > 100 µM (inactive) | – | > 100 µM (inactive) | > 100 µM (inactive) |
| Nc1nc(Cl)c(/N=N/c2ccc(Cl)cc2)c(NCC2(CO)CCC(CCc3ccccc3)C2)n1 (configuration not stated) | 12 µM (inactive) | 13.6 µM (inactive) | 13.7 µM (inactive) | 12.2 µM (inactive) | 12.7 µM (inactive) | 4.56 µM (inactive) | 1.79 µM (inactive) | 14.2 µM (inactive) | 8.51 µM (inactive) | 3.94 µM (inactive) | 8.79 µM (inactive) | 13.2 µM (inactive) | 0.841 µM (active) | 4.14 µM (inactive) | 11 µM (inactive) | 2.8 µM (inactive) | 1.21 µM (inactive) | – | 13.6 µM (inactive) | 14.8 µM (inactive) |
| CC[C@H](NC(=O)OC(C)(C)C)C(=O)NCP(=O)(OCc1ccc([N+](=O)[O-])cc1)OCc1ccc([N+](=O)[O-])cc1 | 21.9 µM (inactive) | 50.9 µM (inactive) | 38.4 µM (inactive) | 26.4 µM (inactive) | 27.8 µM (inactive) | 33.1 µM (inactive) | 32.4 µM (inactive) | 31.8 µM (inactive) | 37.2 µM (inactive) | 63 µM (inactive) | – | – | – | 18.2 µM (inactive) | 13.7 µM (inactive) | 43.2 µM (inactive) | 21.6 µM (inactive) | 26.9 µM (inactive) | 38.9 µM (inactive) | 53.5 µM (inactive) |
| COC(=O)Nc1nc2cc(NS(=O)(=O)c3ccc(Cl)cc3)ccc2[nH]1 | 12.2 µM (inactive) | 6.37 µM (inactive) | 10.7 µM (inactive) | 8.34 µM (inactive) | 5.98 µM (inactive) | 8.59 µM (inactive) | 4.44 µM (inactive) | 7.21 µM (inactive) | 1.99 µM (inactive) | 19.1 µM (inactive) | 5.78 µM (inactive) | 3.05 µM (inactive) | 6.3 µM (inactive) | 4.15 µM (inactive) | 4.45 µM (inactive) | 3.78 µM (inactive) | 4.35 µM (inactive) | – | 2.35 µM (inactive) | 13.1 µM (inactive) |
| NC1=Nc2ccccc2Sc2nc3ccccc3n21 | 17.1 µM (inactive) | – | 52.5 µM (inactive) | 19.1 µM (inactive) | 17.2 µM (inactive) | 27 µM (inactive) | 18.9 µM (inactive) | 21.1 µM (inactive) | 55.7 µM (inactive) | 21.6 µM (inactive) | – | – | 9.38 µM (inactive) | 2.4 µM (inactive) | 43.3 µM (inactive) | – | 3.33 µM (inactive) | 4.49 µM (inactive) | 15.6 µM (inactive) | > 100 µM (inactive) |
| COP(=O)(C(/C=C/c1ccccc1)OC(C)=O)[C@@H]1CCCC[C@H]1N(CC(C)(C)C)C(C)=O (some centres not stated) | 23.1 µM (inactive) | 15.4 µM (inactive) | 18.2 µM (inactive) | 14.8 µM (inactive) | 13.4 µM (inactive) | 15.1 µM (inactive) | 15.8 µM (inactive) | 17.9 µM (inactive) | 12.8 µM (inactive) | 5.87 µM (inactive) | 20.7 µM (inactive) | – | 22.4 µM (inactive) | 14.6 µM (inactive) | 16.3 µM (inactive) | 28 µM (inactive) | 14.5 µM (inactive) | 15 µM (inactive) | 3.94 µM (inactive) | 18.2 µM (inactive) |
| CCCCCCCCCCCCCCCCCCNc1ccn(C2OC(COP(=O)(O)OCC3OC(n4cc(C)c(=O)[nH]c4=O)CC3N=[N+]=[N-])C(O)C2O)c(=O)n1 (configuration not stated) | 18.9 µM (inactive) | 22.8 µM (inactive) | 23.2 µM (inactive) | 22.1 µM (inactive) | 21 µM (inactive) | 21 µM (inactive) | 16.4 µM (inactive) | 17.8 µM (inactive) | 23 µM (inactive) | 34.8 µM (inactive) | 26.3 µM (inactive) | – | 18.7 µM (inactive) | – | 18.3 µM (inactive) | 22.4 µM (inactive) | 15.5 µM (inactive) | 18.4 µM (inactive) | 25.8 µM (inactive) | 16.9 µM (inactive) |
| C=C(C)CC1(O)C(=O)C(OCC)=C1OCC (configuration not stated) | > 100 µM (inactive) | > 100 µM (inactive) | > 100 µM (inactive) | > 100 µM (inactive) | > 100 µM (inactive) | > 100 µM (inactive) | > 100 µM (inactive) | > 100 µM (inactive) | > 100 µM (inactive) | > 100 µM (inactive) | > 100 µM (inactive) | > 100 µM (inactive) | – | > 100 µM (inactive) | > 100 µM (inactive) | > 100 µM (inactive) | > 100 µM (inactive) | – | 79.6 µM (inactive) | 48.1 µM (inactive) |
